Data reported in US20240350456A1, “COMPOSITIONS AND METHODS FOR DIAGNOSING AND TREATING INFLAMMATORY CONDITIONS” (RUTGERS, THE STATE UNIVERSITY OF NEW JERSEY, priority 2023, published 2024).
Entries after “also recorded” stand apart in the source; their conditions may differ.

Legend:
[1] = system: human-derived Caco-2 cells; assay: In vitro transwell screening in Caco-2 cells, barrier disrupted by Clostridium difficile toxin (TEER and FITC-dextran permeability); type: cell-based
Source text: FIG. 20A-20B. In vitro screening of metabolites effective against leaky gut. FIG. 20A, Diagram of the in vitro transwell method used to evaluate efficacy of metabolites in protecting the leaky gut in human-derived Caco-2 cells. The luminal compartment represents the food side, and the basolateral the blood side. FIG. 20B, Transepithelial electrical resistance (TEER) measurements, and FITC-dextran measurements, evaluate the leakiness of the tight junction that regulates the pore (top) and leak (bottom) pathways of the gut. Ions (red), small molecules (blue), FITC-dextran (orange).
FIG. 21A-21D. Efficacy of tryptophan and vitamin B3 metabolites in protecting the gut barrier in vitro. FIG. 21A, TEER measurements of metabolites placed on luminal side of transwells for 72 hours. After 48 hours, the barrier was disrupted by the toxin of clostrium difficile (Cdiff). FIG. 21B, Integrated results of area under the curve using data from FIG. 21A. FIG. 21C, FITC-dextran permeability analysis of metabolites applied luminally. FIG. 21D, FITC-dextran permeability analysis of metabolites applied basolaterally.
FIG. 22A-22B. Efficacy of microbiota-derived indole metabolites in protecting the gut barrier. FIG. 22A, Integrated results of TEER measurements of metabolites placed on luminal side of transwells for 72 hours. After 48 hours, the barrier was disrupted by the toxin of clostrium difficile (Cdiff) FIG. 22B, FITC-dextran permeability analysis of metabolites from FIG. 22A applied luminally.
To perform in vitro screening of the metabolites effective against leaky gut, an in vitro transwell method was used. (FIG. 20A) The efficacy of these metabolites in protecting the leaky gut was analyzed in human-derived Caco-2 cells. Transepithelial electrical resistance (TEER) measurements evaluates the leakiness of the tight junction that regulates the pore (FIG. 20B, top) and leak (FIG. 20B, bottom) pathways of the gut. The higher the TEER, the less permeable the junction is to the movement of ions and small molecules. FITC-dextran is a large polysaccharide with a fluorescent moiety, typically used as a probe to assess the leakiness of the tight junction to large molecules like dextran. The faster the movement of FITC-dextran from lumen to blood, the greater the permeability.
(FIG. 21A) There was no effect of these metabolites on TEER when applied by themselves. After 48 h, the barrier was disrupted by the toxin of a common “bad” bacteria Clostridium difficile (Cdiff). TEER plummeted with this toxin (TOX, red line) compared to control (Veh, blue line). […] (FIG. 21A)

[2] = system: human-derived Caco-2 cells; assay: as above; type: cell-based; details: applied in the basolateral compartment, TOX
[3] = system: leaky gut mouse model (DSS colitis); assay: DSS (3%) leaky gut colitis mouse model, metabolites i.p.; type: in vivo
Source text: A moderate amount of DSS (3%) creates a leaky gut model.
FIG. 23A, Analysis of plasma ovalbumin levels after oral ovalbumin gavage in mice treated with exogenous MNA or PBS. […] Analysis of fecal lipocalin levels in mice treated with PBS or MNA with or without DSS. […] Representative histology sections of mice treated with PBS or MNA with or without DSS. FIG. 23D, quantification of mouse histology sections scored for colitis index.
FIG. 24A, Analysis of zonula occludens (Tjp1) and occluding (Ocln) mRNA levels after treatment with PBS or MNA with or without DSS. FIG. 24B, Western blot analysis and quantification of Ocln protein levels after treatment with PBS or MNA with or without DSS. FIG. 24C, Quantified levels of occluding in the ileum (top) and colon (bottom) using immunofluorescence antibody staining.
Administration of DSS induces experimental colitis and disrupts gut barrier in vivo in animal models.
Exogenous MNA administration was assessed by plasma ovalbumin levels after oral ovalbumin gavage—an accepted method to determine permeability of the gut paracellular pathway. […] (FIG. 23B) Histology sections of mice treated with or without DSS and PBS or MNA were also obtained. […] Sections from several mice were also examined by a blinded observer and scored for colitis index.
(FIG. 24B) Using immunofluoresce antibody staining, quantified levels of occludin in the ileum and colon were also analyzed.

[4] = system: C57BL/6 mice with DSS-induced mild colitis; assay: DSS induced mild colitis treatment with LGG metabolites (2.5% DSS); type: in vivo, mouse; details: metabolite i.p. twice
Experimental: FIG. 13A-13M. IPA requires Ocln to alleviate LPS-induced leaky epithelium. FIG. 13A, experimental design. Organoids were derived from tamoxifen-inducible, intestine-specific Ocln-knockout (KO) mice generated by crossing a floxed Ocln^fl/fl with Villin-CreERT2 mice. FIG. 13B, Representative images and FIG. 13C, quantitative analysis of permeability assay. LPS was added to CCM media (basolateral side) with and without IPA […] and IAM (200 μM) (n=3 mice). *** P<0.001, compared with WT control, †P<0.05 compared with KO-control. FIG. 13D, Representative images of immunofluorescent staining of Ocln in WT control and Ocln KO conventional mice, L=lumen. MNA improves but ASA exacerbates dextran sodium sulfate (DSS)-induced leaky gut. FIG. 13E, experimental design, evaluation in vivo of metabolites (Met). Methylnicotinamide (MNA. […]) and L-argininosuccinate (ASA. 3.6 mg/kg) were administered (i.p.) twice 1-day before and 3 days after DSS treatment p.o. 4 kDa fluorescein isothiocyanate (FITC)-dextran was gavaged 4 h before sacrifice. FIG. 13F, body weight of DSS-treated mice with and without metabolites, FIG. 13G, representative images of Ocln-stained colon sections (green; left panel) and ECad (red; middle). Merged images (yellow; right panel) depict Ocln location in TJ of MNA-treated but not in DSS-only and ASA-treated colon (arrows). Quantitative fluorescent intensity of Ocln (FIG. 13H) and ECad (FIG. 13I) in the TJ, relative to DSS only controls. FIG. 13J, DSS scoring. FIG. 13K, representative H&E images of DSS, DSS+ MNA and DSS+ASA colon sections. FIG. 13L, In vivo permeability as determined by fluorescent intensity of FITC in serum. FIG. 13M, Serum level of interleukin-6.
DSS induced mild colitis treatment with LGG metabolites. To assess in vivo impact of metabolites on gut barrier function, conventional C57BL/6 mice (8 weeks of age) were administered with 2.5% dextran sodium sulfate (DSS) in drinking water to induce mild colitis. Animals were intraperitoneal injected with either PBS vehicle, 30 mg/kg methylnicotinamide chloride, or 3.6 mg/kg argininosuccinic acid dissolved in sterile PBS at Day-1 and Day 4 of the experiment. Body weight was recorded daily. At Day 7, 4 hours before sacrifice and collection of blood, animals were gavaged with 600 mg/kg with 4 kDa FITC-dextran. Blood was collected in 5% EDTA and subsequently centrifuged at 3000 g for 5 minutes for plasma collection. FITC readings were collected by diluting 25 μl of plasma in 75 μl of PBS and analyzed using a Glomax (Promega, GMMTE9032) with Ex490/Em510-570 filter cube module. Serum concentration of interleukin-6 (Cat. No. Biolegend 431304) was also determined. Ileum and colon sections were collected, fixed in 4% paraformaldehyde, processed for embedding in paraffin wax. Pathohistology of intestine was observed by routine H&E staining.

[5] = system: Caco2 BBE monolayer; assay: TEER of confluent Caco2 BBE monolayer disrupted by luminal DSS, with MNA; type: cell-based, human; details: low dose
Experimental: MNA was applied from Day-5 at different concentrations on the luminal (L) or basolateral (BL) compartments. The monolayer was disrupted by 3% DSS in the luminal side on days 5-8.
Caco2 were provided with MNA at day 0 either luminally (L, mimics oral) or basolaterally (BL, mimics intra-peritoneal) (FIG. 17). Then DSS was added to lumen to disrupt gut barrier in all treatments except control (blue circles).

Compound	TEER, indole metabolites (FIG. 22A) ([1]; applied to the lumen, TOX)	TEER, indole metabolites [2]	body weight loss and recovery in DSS leaky gut model ([3]; 3% DSS, i.p. every other day, listed as MNA)	tissue damage in histology sections ([3]; DSS-treated animals)	fecal lipocalin levels ([3]; MNA-DSS vs PBS-DSS)	body weight when injected alone ([3]; i.p. every other day, no DSS)	barrier function (plasma ovalbumin after oral ovalbumin gavage), increase vs PBS treated mice ([3]; i.p. injection)	colitis score (colitis index, blinded observer) ([3]; with DSS)	mRNA levels of Tjp1 and Ocln in the ileum ([3]; with DSS)	integrated TEER (area under the curve, FIG. 21B) ([1]; luminal, C. difficile toxin)	TEER after C. difficile toxin (FIG. 21A) ([1]; metabolites on luminal side, toxin after 48 h)	E-cad abundance and localization in colonic epithelial cells [4]	Ocln expression in colonic epithelium [4]	pathology score (epithelial cell disruption and immune cell infiltration) [4]	DSS-induced leaky gut (overall) ([4]; listed as MNA)	serum IL-6 level ([4]; listed as MNA)	TEER after DSS barrier disruption [5]
NC(=O)Cc1c[nH]c2ccccc12 [Indole-3-acetamide, indole-3-acetamide]	clearly protective against TOX-induced decreases in TEER	more effective when applied in this compartment than in the luminal															
C[n+]1cccc(C(N)=O)c1 [Methylnicotinamide, 1-methynicotinamide]			dampened then accelerated the recovery of body weight; also recorded: robust and faster recovery	alleviated	reduced fecal lipocalin	no deleterious effect on body weight	2 fold	protected the tissue from damage even with DSS	increasing the mRNA levels to normal	protected the cells from barrier disruption by TOX	best at preventing the toxin-induced disruption of the barrier	significantly increased	significantly elevated Ocln expression	improved pathology score	sealed the leaky gut; also recorded: improves	decreased; also recorded: reduced serum proinflammatory IL-6 levels	prevented barrier disruption
